Values quoted from earlier work as cited in patent US10945991B2, “Use and pharmaceutical composition for liver fibrosis prevention and/or treatment” (Cojet Biotech Inc., priority 2018, dated 2021).

System: RAW 264.7 cell line

Question: For Cc1cc(O)c2c(c1O)OCO2 [MBDD, 5-methyl-benzol[1,3]dioxole-4,7-diol], which “NO production induced by lipopolysaccharide” value (RAW 264.7 cell line, effect may result from cytotoxicity) is on record?
Answer: reduce the NO production

Question: And the cytotoxicity (RAW 264.7 cells)?
Answer: strong cytotoxicity
